Data taken from patent publication US6407288B1, “Naphthylsalicylanilides as antimicrobial and antiinflammatory agents” (The Research Foundation of State University of New York, priority 2000, dated 2002).

Tests used:
[1] = system: Fuso. 25586; assay: MIC microdilution, gram negative; type: cell-based, Fusobacterium nucleatum
Description: (§1) The MIC's for the compounds were determined by a modified microdilution tube dilution method described in “Methods for Dilution Antimicrobial Susceptibility Tests for Bacteria that Grow Aerobically” (National Committee for Clinical Laboratory Standards Approved Standards, 1997, NCCLS document M7-A4). In general the modifications were made because of the unique growth requirements for the fastidious oral organisms and for those bacteria that require anaerobic conditions. Reference is also made to “Methods for Antimicrobial Susceptibility of Anaerobic Bacteria” (National Committee for Clinical Laboratory Standards Approved Standards, 1997, NCCLS document M11-A4). Briefly, the methods were as follows. Cultures were grown for 18-24hrs (aerobic bacteria) or 48-72 hrs (anaerobic bacteria) in the appropriate medium. For aerobic bacteria full strength brain heart infusion medium (BHI, Difco) was used. For anaerobic bacteria, half strength BHI (18.5 g/L) was supplemented by adding yeast extract (10 g/L), hemin (0.29 mL of a stock solution containing 0.1 g/200 mL dH2O) and menadione (15 mL of a stock solution containing 0.15 mL in 30 mL 95% EtOH) was used. Initial cultures were diluted to approximately 1×10^8 CFU/mL for use as an inoculum. Each assay received 10 μL of the inoculum. The drugs were prepared from a stock solution contained in dimethyl sulfoxide (DMSO) and diluted into the culture medium. Final concentrations of the drugs ranged from 50 to 0.05 μg/assay. The tests were run in duplicate and were incubated appropriately with regard to oxygen requirements for 24 to 48 hrs as required. Anaerobic incubation was an atmosphere of 5% CO2, 10% H2, with the balance N2. The lowest concentration of an antimicrobial agent at which no visible growth is noted was referred to as the MIC. […] The method used was the same as described in Example 1.

[2] = system: P. acnes 11828; assay: MIC microdilution, gram positive; type: cell-based, Propionibacterium acnes; settings: Table 1, Gram Positive
Description: (§2) The MIC's for the compounds were determined by a modified microdilution tube dilution method described in “Methods for Dilution Antimicrobial Susceptibility Tests for Bacteria that Grow Aerobically” (National Committee for Clinical Laboratory Standards Approved Standards, 1997, NCCLS document M7-A4). In general the modifications were made because of the unique growth requirements for the fastidious oral organisms and for those bacteria that require anaerobic conditions. Reference is also made to “Methods for Antimicrobial Susceptibility of Anaerobic Bacteria” (National Committee for Clinical Laboratory Standards Approved Standards, 1997, NCCLS document M11-A4). Briefly, the methods were as follows. Cultures were grown for 18-24hrs (aerobic bacteria) or 48-72 hrs (anaerobic bacteria) in the appropriate medium. For aerobic bacteria full strength brain heart infusion medium (BHI, Difco) was used. For anaerobic bacteria, half strength BHI (18.5 g/L) was supplemented by adding yeast extract (10 g/L), hemin (0.29 mL of a stock solution containing 0.1 g/200 mL dH2O) and menadione (15 mL of a stock solution containing 0.15 mL in 30 mL 95% EtOH) was used. Initial cultures were diluted to approximately 1×10^8 CFU/mL for use as an inoculum. Each assay received 10 μL of the inoculum. The drugs were prepared from a stock solution contained in dimethyl sulfoxide (DMSO) and diluted into the culture medium. Final concentrations of the drugs ranged from 50 to 0.05 μg/assay. The tests were run in duplicate and were incubated appropriately with regard to oxygen requirements for 24 to 48 hrs as required. Anaerobic incubation was an atmosphere of 5% CO2, 10% H2, with the balance N2. The lowest concentration of an antimicrobial agent at which no visible growth is noted was referred to as the MIC.

[3] = system: P. acnes 6922; assay: MIC microdilution, gram positive; type: cell-based, Propionibacterium acnes; settings: Table 1, Gram Positive
Description: as §2

[4] = system: S. mutans; assay: MIC microdilution, gram positive; type: cell-based, Streptococcus mutans; settings: Table 1, Gram Positive
Description: as §2

[5] = system: B. fragilis; assay: MIC microdilution, gram negative; type: cell-based, Bacteroides fraglis
Description: as §1

[6] = system: Aa Y4; assay: MIC microdilution, gram negative; type: cell-based, Actinobacillus actinomycetemcomitans
Description: as §1

[7] = system: S. species R; assay: Staphylococcus MIC; type: cell-based, staphylococcus species R; settings: second Table 5 (Example 5); strain 00-045-1209
Description: (§3) The MIC's for the compounds were determined by a modified microdilution tube dilution method described in “Methods for Dilution Antimicrobial Susceptibility Tests for Bacteria that Grow Aerobically” (National Committee for Clinical Laboratory Standards Approved Standards, 1997, NCCLS document M7-A4). In general the modifications were made because of the unique growth requirements for the fastidious oral organisms and for those bacteria that require anaerobic conditions. Reference is also made to “Methods for Antimicrobial Susceptibility of Anaerobic Bacteria” (National Committee for Clinical Laboratory Standards Approved Standards, 1997, NCCLS document M11-A4).
(§4) Briefly, the methods were as follows. Cultures were grown for 18-24hrs (aerobic bacteria) or 48-72 hrs (anaerobic bacteria) in the appropriate medium. For aerobic bacteria full strength brain heart infusion medium (BHI, Difco) was used. For anaerobic bacteria, half strength BHI (18.5 g/L) was supplemented by adding yeast extract (10 g/L), hemin (0.29 mL of a stock solution containing 0.1 g/200 mL dH2O) and menadione (15 mL of a stock solution containing 0.15 mL in 30 mL 95% EtOH) was used. Initial cultures were diluted to approximately 1×10^8 CFU/mL for use as an inoculum. Each assay received 10 μL of the inoculum. The drugs were prepared from a stock solution contained in dimethyl sulfoxide (DMSO) and diluted into the culture medium. Final concentrations of the drugs ranged from 50 to 0.05 μg/assay. The tests were run in duplicate and were incubated appropriately with regard to oxygen requirements for 24 to 48 hrs as required. Anaerobic incubation was an atmosphere of 5% CO2, 10% H2, with the balance N2. The lowest concentration of an antimicrobial agent at which no visible growth is noted was referred to as the MIC.
(§5) This embodiment describes the sensitivity of various staphylococcus strains to the compounds of the present invention. The staphylococcus species R is a strain 00-045-1209 from the Children's Hospital in Buffalo. It was isolated from the peritoneal cavity (fluid culture) of an individual. It was coagulase negative. The sensitivity of this strain was tested agaisnt several known antibiotics.

[8] = system: S. sanguis; assay: MIC microdilution, gram positive; type: cell-based, Streptococcus sanguis; settings: Table 1, Gram Positive
Description: as §2

[9] = system: S. aureus; assay: MIC microdilution, gram positive; type: cell-based, Staphlococcus aureus
Description: as §3, §4, §5

[10] = system: M. luteus; assay: MIC microdilution, gram positive; type: cell-based, Micrococcus luteus; settings: Table 2, Gram Positive
Description: as §2

[11] = system: A. viscosus; assay: MIC microdilution, gram positive; type: cell-based, Actinomyces viscosus; settings: Table 2, Gram Positive
Description: as §2

[12] = system: S.salivarius; assay: MIC microdilution, gram positive; type: cell-based, Streptococcus salivarius; settings: Table 1, Gram Positive
Description: as §2

[13] = system: Lact 7496; assay: MIC microdilution, gram positive; type: cell-based, Lactobacillus rhamnosus (casei); settings: Table 2, Gram Positive
Description: as §2

[14] = system: P. ging 381; assay: MIC microdilution, gram negative; type: cell-based, Porphyromonas gingivalis
Description: as §1

[15] = system: Pg 53977; assay: MIC microdilution, gram negative; type: cell-based, Porphyromonas gingivalis
Description: as §1

[16] = system: Str. pn. R; assay: Mean Streptococcus MIC; type: cell-based; settings: Table 5, mean; strain resistant to penicillin and erythromycin
Description: as §3, §4
(§6) This embodiment illustrates the efficacy of the compounds of the present invention against Streptococcus strains. One of the strains, Str.pn.R was obtained from the Children's Hospital in Buffalo (strain 00-041-0614). […] The sensitivity of this strain was tested against several known antibiotics.

[17] = system: Str. pyo; assay: Mean Streptococcus MIC; type: cell-based; settings: Table 5, mean
Description: as §3, §4, §6

[18] = system: Str. pn; assay: Mean Streptococcus MIC; type: cell-based; settings: Table 5, mean
Description: as §3, §4, §6

[19] = Table 3 printed a second time, Gram Negative

SMILES | MIC Fuso. 25586 ([1]; Table 3, Gram Negative) | MIC Fuso. 25586 [1, 19] | MIC P. acnes 11828 [2] [micrograms/ml] | MIC P. acnes 6922 [3] [micrograms/ml] | MIC S. mutans [4] | MIC B. fragilis ([5]; Table 3, Gram Negative) | MIC B. fragilis [5, 19] | MIC Aa Y4 ([6]; Table 3, Gram Negative) | MIC Aa Y4 [6, 19] | MIC S. species R [7] | MIC S. sanguis [8] [micrograms/ml] | MIC S. aureus ([9]; Table 2, Gram Positive) | MIC S. aureus ([9]; second Table 5 (Example 5)) | MIC M. luteus [10] [micrograms/ml] | MIC A. viscosus [11] [micrograms/ml] | MIC S.salivarius [12] | MIC Lact 7496 [13] [micrograms/ml] | MIC P. ging 381 ([14]; Table 3, Gram Negative) [micrograms/ml] | MIC P. ging 381 [14, 19] [micrograms/ml] | MIC Pg 53977 ([15]; Table 3, Gram Negative) [micrograms/ml] | also measured
N#Cc1cccc(NC(=O)c2cc(C(=O)c3ccc4ccccc4c3)ccc2O)c1 [NA2mC] | NE (NE indicates that the drug was not effective at a concentration >50 micrograms/ml) | NE (NE indicates that the drug was not effective at a concentration >50 micrograms/ml) | 12.5 | 6.3 | 6.3 micrograms/ml | 3.1 micrograms/ml | 3.1 micrograms/ml | NE (NE indicates that the drug was not effective at a concentration >50 micrograms/ml) | NE (NE indicates that the drug was not effective at a concentration >50 micrograms/ml) | NE (NE indicates that the drug was not effective at a concentration >50 micrograms/ml) | 6.3 | NE (NE indicates that the drug was not effective at a concentration >50 micrograms/ml) | NE (NE indicates that the drug was not effective at a concentration >50 micrograms/ml) | 3.1 | 1.6 | 50 micrograms/ml | 12.5 | 0.8 | 0.8 | 0.8 | MIC Pg 53977 [15, 19]: 0.8 micrograms/ml; Mean Streptococcus MIC values Str. pn. R [16]: 6.25 micrograms/ml; Mean Streptococcus MIC values Str. pyo [17]: NE (NE indicates that the drug was not effective at a concentration >50 micrograms/ml); Mean Streptococcus MIC values Str. pn [18]: 0.91 micrograms/ml
CCCCCCCCCCCCS(=O)(=O)c1ccc(O)c(C(=O)Nc2cccc(C(F)(F)F)c2)c1 [TMF-12, reference compound] | NE (NE indicates that the drug was not effective at a concentration >50 micrograms/ml) | NE (NE indicates that the drug was not effective at a concentration >50 micrograms/ml) | 0.2 | 0.4 | NE (NE indicates that the drug was not effective at a concentration >50 micrograms/ml) | NE (NE indicates that the drug was not effective at a concentration >50 micrograms/ml) | NE (NE indicates that the drug was not effective at a concentration >50 micrograms/ml) | NE (NE indicates that the drug was not effective at a concentration >50 micrograms/ml) | NE (NE indicates that the drug was not effective at a concentration >50 micrograms/ml) | NE (NE indicates that the drug was not effective at a concentration >50 micrograms/ml) | 12.5 | NE (NE indicates that the drug was not effective at a concentration >50 micrograms/ml) | NE (NE indicates that the drug was not effective at a concentration >50 micrograms/ml) | 0.8 | 1.6 | NE (NE indicates that the drug was not effective at a concentration >50 micrograms/ml) | 3.1 | 0.4 | 0.4 | 0.4 | MIC Pg 53977 [15, 19]: 0.4 micrograms/ml; Mean Streptococcus MIC values Str. pn. R [16]: 0.78 micrograms/ml; Mean Streptococcus MIC values Str. pyo [17]: 0.47 micrograms/ml; Mean Streptococcus MIC values Str. pn [18]: 0.65 micrograms/ml
